The values that follow come from patent publication US11958821B2, “Phenethylamine compounds salts, polymorphic forms and methods of use thereof” (Terran Biosciences Inc., priority 2021, dated 2024).

For one data set, the system named is Male Sprague-Dawley rats. In words: Rat elevated zero-maze study with racemic MBDB, R-MBDB, S-MBDB and chlordiazepoxide. As to conditions: for Dose showing a switch to an anxiolytic effect (magnitude of the reduction in SAPs): ip.
Data set [1] relates to participants diagnosed with at least moderate post-traumatic stress disorder (PTSD). Description: Double-blind, randomized, placebo-controlled clinical trial of MBDB-assisted psychotherapy in PTSD. Type of data set: in vivo, human. As to conditions: for Change in CAPS-5 assessment: Study Conclusion, hydrochloride salt with psychotherapy; for Change in CAPS-5 assessment / Clinician-rated functional impairment score (SDS) / Depression (HAM-D): vs placebo; for Daytime sleepiness (ESS): human, in vivo; for Total dosage of drug to achieve significant mean reduction in CAPS-5: vs racemic MBDB-treated subgroup. The procedure: A multicenter, randomized, double-blind, placebo-controlled trial is conducted to assess the efficacy and safety of MBDB-assisted psychotherapy versus psychotherapy with placebo control in participants diagnosed with at least moderate post-traumatic stress disorder (PTSD).
This multicenter, randomized, double-blind, placebo-controlled trial is conducted at various sites in the United States with IRB approval from each study site. A flexible dose of MBDB hydrochloride salt or placebo, followed by a supplemental half-dose unless contraindicated by patient's previous response or medical history, is also administered during the Treatment Period with psychotherapy in at least 3 blinded monthly Experimental Sessions. The Supplemental Dose extends the duration of drug effects on the participants during an Experimental Session. MBDB test groups are further subdivided into specific groups receiving only racemic MBDB hydrochloride salt, S-MBDB hydrochloride salt, or R-MBDB hydrochloride salt. An optional Risk Evaluation and Mitigation Strategy (REMS) Protocol may be implemented for the racemic MBDB, S-MBDB, R-MBDB, and placebo-groups. The Treatment Period lasts for approximately 12 weeks. During the Treatment Period, each Experimental Session is followed by three Intervening Sessions of non-drug psychotherapy. Each Experimental Session involves an overnight stay. The Primary Outcome measure, the change in Clinician Administered PTSD Scale for DSM-5 (CAPS-5), is determined by a blinded Independent Rater (IR) pool multiple times throughout the study. The study consists of separate periods for each participant. Initially, prospective participants undergo a Screening Period involving an initial eligibility assessment, a medical history intake, informed consent, and enrollment of eligible participants. Next, a Preparation Period is undertaken for enrolled participants involving medication tapering and clinical baseline assessments to confirm each participant meets enrollment criteria. As part of the Preparation Period, a detailed assessment of co-morbidities to PTSD is recorded. Participants may remain on prescribed courses of selective serotonin reuptake inhibitor (SSRI) or serotonin and norepinephrine reuptake inhibitor (SNRI) treatment. Dosages and/or frequency of administration of a prescribed SSRI or SNRI may be adjusted to fit within study parameters. Participants may be required to taper a prescribed course of medication in order to maintain eligibility within the study. The Treatment Period consists of three monthly Experimental Sessions and associated Intervening Sessions of integrative behavioral psychotherapy. The Treatment Period lasts approximately 12 weeks. Following the Treatment Period is a Follow-up Period and Study Conclusion. During the Follow-up Period and Study Conclusion, participants complete 4 weeks with no study visits, followed by a Study Conclusion visit.
This study compares the effects of three blinded Experimental Sessions of psychotherapy in combination with flexible doses of MBDB or placebo administered as described below. Non-drug preparatory and intervening psychotherapy sessions are also included. Patient's weight is determined for dosage calculation. Initial dose is 180 mg unless this will result in a dosage of less than 1.5 mg/kg of patient weight. Initial dose thereby adjusted upward in 50 mg increments to deliver the lowest dose possible of at least 1.5 mg/kg of patient weight. Initial dose for Experimental Session 2 and 3 is cumulative dose calculated by adding the initial dose plus REMS protocol dose used the previous Experimental Session for each patient.
Randomization occurs prior to the initiation of Experimental Session 1. Each participant is provided the next randomized number in a sequence by a blinded study monitor. Participants are then randomized, according to a computer-generated randomization schedule, 1:1:1:1 to racemic MBDB, S-MBDB, R-MBDB, or placebo. […]

[2] abbreviates: 5 mg/kg ip, continued anxiogenic effect.

From the text for Male Sprague-Dawley rats: Two opposite quadrants are enclosed by Perspex walls on both the inner and the outer edges of the platform, while the remaining two opposite quadrants are open being enclosed only by a Perspex “lip”. Animals will show a preference for the closed areas, and avoidance of the open sections is assumed to stem from a rodent's natural aversion to open, exposed spaces. A reduction in the amount of activity on the open areas is considered to reflect an increase in anxiety. The ethologically-based behavior stretched attend postures (SAP) from closed to open quadrants is assessed as an index of anxiety. […] Animals
Male Sprague-Dawley 200-250 g (Envigo UK) rats were used. Animals were group-housed (5 per cage; cage size: 40×40×20 cm) in a temperature-controlled environment (22±2° C.), under a 12 h light-dark cycle (lights on: 08:00 hours) for one week prior to testing. Food and water were freely available. Number of animals per group=5.
The elevated 0-maze comprises a black Perspex annular platform (105 cm diameter, 10 cm width) elevated to 65 cm above ground level, divided equally into four quadrants. Two opposite quadrants are enclosed by clear red Perspex walls (27 cm high) on both the inner and outer edges of the platform, while the remaining two opposite quadrants are surrounded only by a Perspex “lip” (1 cm high) which serves as a tactile guide to animals on these open areas.
Subjects were weighed and tail marked before being injected. After a specified pretreatment time, subjects were placed in a closed quadrant and a 5-min test period were recorded on videotape for subsequent analysis. The maze was cleaned with 5% methanol/water solution and dried thoroughly between test sessions. Behavioural measures comprise percentage time spent on the open areas (% TO) and frequency of stretched attend postures (SAP) from closed to open quadrants. Since the control groups were all treated identically with the same vehicle these were combined to increase power. The Chlordiazepoxide groups were also treated identically with the same dose so these were also combined to increase power. Animals are scored as being in the open area when all four paws were in an open quadrant and in the closed area only when all four paws have passed over the open-closed divide.
Thirty min later at T=0, rats were individually placed in a closed arm of the zero-maze and behavior assessed by a “blind” observer using remote video monitoring over the subsequent 5 min. The animals were then removed and the maze carefully wiped with 5% methanol/water solution before the next test was begun.
Thirty min later at T=0, rats were individually placed in a closed arm of the zero-maze and behavior was assessed by a “blind” observer using remote video monitoring over the subsequent 5 min. The animal were then removed and the maze carefully wiped with 5% methanol/water solution before the next test was begun.
Thirty min later at T=0, rats were individually placed in a closed arm of the zero-maze and behavior was assessed by a “blind” observer using remote video monitoring over the subsequent 5 min.

For the compound `CCC(Cc1ccc2c(c1)OCO2)NC` (racemic) [racemic MBDB], in the data set on Male Sprague-Dawley rats (setting [2]), the “Frequency of stretched attend postures (SAP)” value (shortened to “Frequency”) was “reached significance”. The “Frequency” value in the data set on Male Sprague-Dawley rats (10 mg/kg ip) is “consistent level of SAPs similar to the 5 mg/kg”. Besides, the “Frequency” value with Male Sprague-Dawley rats (30 mg/kg ip) is “showed a trend toward significance”. The “Dose showing a switch to an anxiolytic effect (magnitude of the reduction in SAPs)” value in the data set with Male Sprague-Dawley rats is 30 mg/kg. Also, in data set [1], the “Change in CAPS-5 assessment” value is on record as “significant mean reduction in CAPS-5 assessment compared to the placebo group”, the “Daytime sleepiness (ESS)” value is on record as “significant improvement in lessening daytime sleepiness”, the “Clinician-rated functional impairment score (SDS)” value is on record as “significant improvement in clinician-rated functional impairment score” and the “Depression (HAM-D)” value is reported as “significant improvement depression”.
For the compound `CC[C@H](Cc1ccc2c(c1)OCO2)NC` [R-MBDB], the “Frequency” value in the data set on Male Sprague-Dawley rats (10 mg/kg ip) is “consistent level of SAPs similar to the 5 mg/kg”. For the same compound, the “Frequency” value in the data set on Male Sprague-Dawley rats (15 mg/kg ip) was “reduction in the number of SAPs compared to lower doses”. Besides, the “Frequency” value in the data set with Male Sprague-Dawley rats (30 mg/kg ip) was “decreased the frequency of SAPs as effectively as the benzodiazepine chlordiazepoxide”. The “Frequency” value in the data set on Male Sprague-Dawley rats (30 mg/kg ip, listed as R MBDB) is “significantly reduced the number of SAPs”. The “Dose showing a switch to an anxiolytic effect (magnitude of the reduction in SAPs)” value in the data set with Male Sprague-Dawley rats is given as 15 mg/kg. Further, in data set [1], the “Change in CAPS-5 assessment” value was “significant mean reduction in CAPS-5 assessment compared to the placebo group”, the “Daytime sleepiness (ESS)” value is reported as “significant improvement in lessening daytime sleepiness”, the “Clinician-rated functional impairment score (SDS)” value is recorded as “significant improvement in clinician-rated functional impairment score” and the “Depression (HAM-D)” value is listed as “significant improvement depression”. The “Total dosage of drug to achieve significant mean reduction in CAPS-5” value in data set [1] is recorded as “lower total dosage of drug compared to the racemic MBDB-treated subgroup”.
Regarding `CC[C@@H](Cc1ccc2c(c1)OCO2)NC` [S-MBDB], in the data set with Male Sprague-Dawley rats (setting [2]), the “Frequency” value is “reached significance”. In addition, the “Frequency” value in the data set with Male Sprague-Dawley rats (10 mg/kg ip) is given as “rapid reduction in total SAPs”. Further, the “Frequency” value with Male Sprague-Dawley rats (15 mg/kg ip) was “reduction in the number of SAPs compared to lower doses”. Moreover, in the data set on Male Sprague-Dawley rats (30 mg/kg ip), the “Frequency” value was “decreased the frequency of SAPs as effectively as the benzodiazepine chlordiazepoxide” and the “Magnitude of the reduction in SAPs among MBDB forms” value is on record as “greatest”. The “Frequency” value in the data set on Male Sprague-Dawley rats (30 mg/kg ip, listed as S MBDB) is recorded as “significantly reduced the number of SAPs”. Further, in the data set on Male Sprague-Dawley rats, the “Dose showing a switch to an anxiolytic effect (magnitude of the reduction in SAPs)” value is given as 10 mg/kg. Moreover, in data set [1], the “Change in CAPS-5 assessment” value was “significant mean reduction in CAPS-5 assessment compared to the placebo group”, the “Daytime sleepiness (ESS)” value was “significant improvement in lessening daytime sleepiness”, the “Clinician-rated functional impairment score (SDS)” value is listed as “significant improvement in clinician-rated functional impairment score” and the “Depression (HAM-D)” value was “significant improvement depression”. Moreover, the “Total dosage of drug to achieve significant mean reduction in CAPS-5” value in data set [1] is “lower total dosage of drug compared to the racemic MBDB-treated subgroup”. Also, the Adverse anxiogenic incidents entry in data set [1] (vs placebo-treated controls) is recorded as “without a significant increase in adverse anxiogenic incidents”.
